# From patent US8802597B2, “Herbicidal pyrimidines” (E I du Pont de Nemours and Company, priority 2003, dated 2014)
# Legend:
# Experiment in all cases: Test C postemergence
# Assay type in all cases: in vivo
# [1] = test system: wheat (Triticum aestivum); conditions: for Plant response rating, Wheat: scale 0 to 100
# Summary of the method: (§1)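 Applications: preemergence onto seeded soil and postemergence onto 1- to 4-leaf seedlings, compound carried in non-phytotoxic solvent plus surfactant. Kept in greenhouse 12 to 14 days. Scored visually relative to untreated controls, 0 (no effect) to 100 (complete control).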
# [2] = test system: wild oat (Avena fatua); conditions: for Plant response rating, Oat, Wild: scale 0 to 100
# Summary of the method: as §1
# [3] = test system: Italian ryegrass (Lolium multiflorum); conditions: for Plant response rating, Ryegrass, Italian: scale 0 to 100
# Summary of the method: as §1
# [4] = test system: windgrass (Apera spica-venti); conditions: for Plant response rating, Windgrass: scale 0 to 100
# Summary of the method: as §1
# [5] = test system: green foxtail (Setaria viridis); conditions: for Plant response rating, Foxtail, Green: scale 0 to 100
# Summary of the method: as §1
# [6] = test system: downy brome (Bromus tectorum); conditions: for Plant response rating, Bromegrass, Downy: scale 0 to 100
# Summary of the method: as §1
# [7] = test system: blackgrass (Alopecurus myosuroides); conditions: for Plant response rating, Blackgrass: scale 0 to 100
# Summary of the method: as §1
# [8] = test system: winter barley (Hordeum vulgare); conditions: for Plant response rating, Barley: scale 0 to 100
# Summary of the method: as §1
# [9] = test system: canarygrass (Phalaris minor); conditions: for Plant response rating, Canarygrass: scale 0 to 100
# Summary of the method: as §1
# [10] = 62 g ai/ha, scale 0 to 100 (0 no effect, 100 complete control)
# [11] = 125 g ai/ha, scale 0 to 100 (0 no effect, 100 complete control)
SMILES,"Plant response rating, Wheat ([1]; 250 g ai/ha)","Plant response rating, Wheat ([1]; 500 g ai/ha)","Plant response rating, Oat, Wild ([2]; 250 g ai/ha)","Plant response rating, Oat, Wild ([2]; 500 g ai/ha)","Plant response rating, Ryegrass, Italian ([3]; 250 g ai/ha)","Plant response rating, Ryegrass, Italian ([3]; 500 g ai/ha)","Plant response rating, Windgrass ([4]; 250 g ai/ha)","Plant response rating, Windgrass ([4]; 500 g ai/ha)","Plant response rating, Foxtail, Green ([5]; 250 g ai/ha)","Plant response rating, Foxtail, Green ([5]; 500 g ai/ha)","Plant response rating, Bromegrass, Downy ([6]; 250 g ai/ha)","Plant response rating, Bromegrass, Downy ([6]; 500 g ai/ha)","Plant response rating, Blackgrass ([7]; 250 g ai/ha)","Plant response rating, Blackgrass ([7]; 500 g ai/ha)","Plant response rating, Barley ([8]; 250 g ai/ha)","Plant response rating, Barley ([8]; 500 g ai/ha)","Plant response rating, Canarygrass ([9]; 250 g ai/ha)","Plant response rating, Canarygrass ([9]; 500 g ai/ha)",further results
COC(=O)c1nc(C2CC2)nc(NO)c1Br [Compound 35],45,45,45,55,40,40,65,65,60,65,40,40,60,65,40,45,45,55,"plant injury at 62 g/ha ([1]; Triticum aestivum, post-emergence, 62 g ai/ha, scale 0 to 100 (0 no effect, 100 complete control), read-out: Wheat plant response rating): 35%; plant injury at 125 g/ha ([1]; Triticum aestivum, post-emergence, 125 g ai/ha, scale 0 to 100 (0 no effect, 100 complete control), read-out: Wheat plant response rating): 40%; pest or weed control at 62 g/ha ([2]; Avena fatua, post-emergence, 62 g ai/ha, scale 0 to 100 (0 no effect, 100 complete control), read-out: Oat, Wild plant response rating): 30%; pest or weed control at 125 g/ha ([2]; Avena fatua, post-emergence, 125 g ai/ha, scale 0 to 100 (0 no effect, 100 complete control), read-out: Oat, Wild plant response rating): 45%; pest or weed control at 62 g/ha ([3]; Lolium multiflorum, post-emergence, 62 g ai/ha, scale 0 to 100 (0 no effect, 100 complete control), read-out: Ryegrass, Italian plant response rating): 40%; pest or weed control at 125 g/ha ([3]; Lolium multiflorum, post-emergence, 125 g ai/ha, scale 0 to 100 (0 no effect, 100 complete control), read-out: Ryegrass, Italian plant response rating): 40%; pest or weed control at 62 g/ha ([4]; Apera spica-venti, post-emergence, 62 g ai/ha, scale 0 to 100 (0 no effect, 100 complete control), read-out: Windgrass plant response rating): 40%; pest or weed control at 125 g/ha ([4]; Apera spica-venti, post-emergence, 125 g ai/ha, scale 0 to 100 (0 no effect, 100 complete control), read-out: Windgrass plant response rating): 55%; pest or weed control at 62 g/ha ([5]; Setaria viridis, post-emergence, 62 g ai/ha, scale 0 to 100 (0 no effect, 100 complete control), read-out: Foxtail, Green plant response rating): 40%; pest or weed control at 125 g/ha ([5]; Setaria viridis, post-emergence, 125 g ai/ha, scale 0 to 100 (0 no effect, 100 complete control), read-out: Foxtail, Green plant response rating): 50%; pest or weed control at 62 g/ha ([6]; Bromus tectorum, post-emergence, 62 g ai/ha, scale 0 to 100 (0 no effect, 100 complete control), read-out: Bromegrass, Downy plant response rating): 30%; pest or weed control at 125 g/ha ([6]; Bromus tectorum, post-emergence, 125 g ai/ha, scale 0 to 100 (0 no effect, 100 complete control), read-out: Bromegrass, Downy plant response rating): 30%; pest or weed control at 62 g/ha ([7]; Alopecurus myosuroides, post-emergence, 62 g ai/ha, scale 0 to 100 (0 no effect, 100 complete control), read-out: Blackgrass plant response rating): 50%; pest or weed control at 125 g/ha ([7]; Alopecurus myosuroides, post-emergence, 125 g ai/ha, scale 0 to 100 (0 no effect, 100 complete control), read-out: Blackgrass plant response rating): 50%; plant injury at 62 g/ha ([8]; Hordeum vulgare, post-emergence, 62 g ai/ha, scale 0 to 100 (0 no effect, 100 complete control), read-out: Barley plant response rating): 20%; plant injury at 125 g/ha ([8]; Hordeum vulgare, post-emergence, 125 g ai/ha, scale 0 to 100 (0 no effect, 100 complete control), read-out: Barley plant response rating): 35%; pest or weed control at 62 g/ha ([9]; Phalaris minor, post-emergence, 62 g ai/ha, scale 0 to 100 (0 no effect, 100 complete control), read-out: Canarygrass plant response rating): 35%; pest or weed control at 125 g/ha ([9]; Phalaris minor, post-emergence, 125 g ai/ha, scale 0 to 100 (0 no effect, 100 complete control), read-out: Canarygrass plant response rating): 45%"
CNN=Cc1nc(C2CC2)nc(N)c1Br [Compound 49],50,60,40,60,50,50,60,60,50,60,0,30,50,60,30,40,30,40,"Wheat plant response rating [1, 10]: 20; Wheat plant response rating [1, 11]: 40; Oat, Wild plant response rating [2, 10]: 30; Oat, Wild plant response rating [2, 11]: 40; Ryegrass, Italian plant response rating [3, 10]: 30; Ryegrass, Italian plant response rating [3, 11]: 30; Windgrass plant response rating [4, 10]: 40; Windgrass plant response rating [4, 11]: 40; Foxtail, Green plant response rating [5, 10]: 0; Foxtail, Green plant response rating [5, 11]: 20; Bromegrass, Downy plant response rating [6, 10]: 0; Bromegrass, Downy plant response rating [6, 11]: 0; Blackgrass plant response rating [7, 10]: 40; Blackgrass plant response rating [7, 11]: 40; Barley plant response rating [8, 10]: 0; Barley plant response rating [8, 11]: 20; Canarygrass plant response rating [9, 10]: 0; Canarygrass plant response rating [9, 11]: 20"
